From PubChem BioAssay AID2060603 (Molecular Pharmacology Branch, DTP, NCI, 2025)

System: 422866-222-R5-J1-PDC spheroid viability
Assay: Anticancer human tumor 422866-222-R5-J1-PDC patient-derived pancreatic adenocarcinoma cell line growth inhibition [CLK]
Details: spheroids with HUVEC and MSC; for IC50: curve of first compound; for viability, T/C: stronger effect = lower value; active means viability on the fitted dose curve at most 10% of control; inactive means the rest
How it was run: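 Multi-cell-type spheroids combined patient-derived tumor cells with HUVEC endothelial cells and human mesenchymal stem cells. Paired agents were dosed in half-log steps down from about clinical Cmax, or from 10 microM where Cmax was unknown.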

[1] = second compound 0.0316 µM, first compound 0.0316 µM
[2] = second compound 0.0316 µM, first compound 0.1 µM
[3] = second compound 0.0316 µM, first compound 0.316 µM
[4] = second compound 0.0316 µM, first compound 1 µM
[5] = second compound 0.0316 µM, first compound 3.16 µM
[6] = second compound 0.0316 µM, first compound 10 µM
[7] = second compound 0.1 µM, first compound 0.0316 µM
[8] = second compound 0.1 µM, first compound 0.1 µM
[9] = second compound 0.1 µM, first compound 0.316 µM
[10] = second compound 0.1 µM, first compound 1 µM
[11] = second compound 0.1 µM, first compound 3.16 µM
[12] = second compound 0.1 µM, first compound 10 µM
[13] = second compound 0.316 µM, first compound 0.0316 µM
[14] = second compound 0.316 µM, first compound 0.1 µM
[15] = second compound 0.316 µM, first compound 0.316 µM
[16] = second compound 0.316 µM, first compound 1 µM
[17] = second compound 0.316 µM, first compound 3.16 µM
[18] = second compound 0.316 µM, first compound 10 µM
[19] = second compound 1 µM, first compound 0.0316 µM
[20] = second compound 1 µM, first compound 0.1 µM
[21] = second compound 1 µM, first compound 0.316 µM
[22] = second compound 1 µM, first compound 1 µM
[23] = second compound 1 µM, first compound 3.16 µM
[24] = second compound 1 µM, first compound 10 µM
[25] = second compound 3.16 µM, first compound 0.0316 µM
[26] = second compound 3.16 µM, first compound 0.1 µM
[27] = second compound 3.16 µM, first compound 0.316 µM
[28] = second compound 3.16 µM, first compound 1 µM
[29] = second compound 3.16 µM, first compound 3.16 µM
[30] = second compound 3.16 µM, first compound 10 µM
[31] = second compound 10 µM, first compound 0.0316 µM
[32] = second compound 10 µM, first compound 0.1 µM
[33] = second compound 10 µM, first compound 0.316 µM
[34] = second compound 10 µM, first compound 1 µM
[35] = second compound 10 µM, first compound 3.16 µM
[36] = second compound 10 µM, first compound 10 µM
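Further: spheroids exposed to agents for seven days before readout.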

CC(CO)NC(=O)c1cc(-c2ccc(Cl)cc2)nn(-c2cnn(C)c2)c1=O (centres undefined) + CN1CCN(c2cc(C(=O)Nc3cc4cc(-c5cnn(C)c5)ccc4cn3)ccn2)CC1
> 10000 nM: IC50 (second compound 0.0316 µM) | IC50 (second compound 0.1 µM) | IC50 (second compound 0.316 µM)
< 31.6 nM: IC50 (second compound 1 µM) | IC50 (second compound 3.16 µM) | IC50 (second compound 10 µM)
inactive: viability, T/C [1] 115% | viability, T/C [2] 104% | viability, T/C [3] 106% | viability, T/C [4] 135% | viability, T/C [5] 106% | viability, T/C [6] 75.7% | viability, T/C [7] 115% | viability, T/C [8] 118% | viability, T/C [9] 104% | viability, T/C [10] 116% | viability, T/C [11] 104% | viability, T/C [12] 82.6% | viability, T/C [13] 107% | viability, T/C [14] 93.5% | viability, T/C [15] 86.9% | viability, T/C [16] 88.7% | viability, T/C [17] 80.8% | viability, T/C [18] 68.8% | viability, T/C [19] 30.9% | viability, T/C [20] 27.6% | viability, T/C [21] 31.6% | viability, T/C [22] 31.1% | viability, T/C [23] 31.3% | viability, T/C [24] 32% | viability, T/C [25] 13.1% | viability, T/C [26] 13.4% | viability, T/C [27] 12.1% | viability, T/C [28] 12% | viability, T/C [29] 11.5% | viability, T/C [30] 13.6%
active: viability, T/C [31] 2.51% | viability, T/C [32] 3.09% | viability, T/C [33] 1.44% | viability, T/C [34] 2.25% | viability, T/C [35] 3.26% | viability, T/C [36] 1.54%

C#Cc1c(F)ccc2cc(O)cc(-c3ncc4c(N5CC6CCC(C5)N6)nc(OCC56CCCN5CC(F)C6)nc4c3F)c12 (centres undefined) + CN1CCN(c2cc(C(=O)Nc3cc4cc(-c5cnn(C)c5)ccc4cn3)ccn2)CC1
< 31.6 nM: IC50 (second compound 1 µM) | IC50 (second compound 3.16 µM) | IC50 (second compound 10 µM)
1540 nM: IC50 (second compound 0.0316 µM)
1200 nM: IC50 (second compound 0.316 µM)
inactive: viability, T/C [1] 99.1% | viability, T/C [2] 100% | viability, T/C [3] 70.7% | viability, T/C [4] 60.9% | viability, T/C [5] 37.4% | viability, T/C [6] 33.9% | viability, T/C [7] 100% | viability, T/C [8] 113% | viability, T/C [9] 74.7% | viability, T/C [10] 60.5% | viability, T/C [11] 45.3% | viability, T/C [12] 33.4% | viability, T/C [13] 105% | viability, T/C [14] 83.4% | viability, T/C [15] 68.4% | viability, T/C [16] 50.5% | viability, T/C [17] 41.4% | viability, T/C [18] 26.8% | viability, T/C [19] 35.7% | viability, T/C [20] 35.1% | viability, T/C [21] 38% | viability, T/C [22] 27.2% | viability, T/C [23] 24.3% | viability, T/C [24] 19% | viability, T/C [25] 11.2% | viability, T/C [26] 11.9%
1780 nM: IC50 (second compound 0.1 µM)
active: viability, T/C [27] 7.84% | viability, T/C [28] 7.25% | viability, T/C [29] 5.39% | viability, T/C [30] 7.56% | viability, T/C [31] 5.16% | viability, T/C [32] 2.81% | viability, T/C [33] 1.05% | viability, T/C [34] 1.26% | viability, T/C [35] 1.28% | viability, T/C [36] 4.84%
